Common to all, as to format: in vivo, C57BL/6N mice
The subject of one test is myocardial BCAA content. Nature of the test: LC-MS/MS of BCAA and leucine metabolites in heart extracts of TAC mice. The protocol: (§1) Twelve weeks C57BL/6N old mice were anesthetised with ketamine/xylazine (100 mg/kg and 10 mg/kg, respectively) and mechanically ventilated (SAR-830/AP, CWE). The transverse aortic arch was ligated by tying a 6-0 silk suture around the aorta and a 27G needle to yield a partial and reproducible constriction when the needle was removed. In sham animals, the aortic arch was visualized but not banded. Thorax was closed and analgesia was administrated (buprenorphine at 0.1 mg/kg every 12 hours until 48 hours). Mice were euthanized by lethal intraperitoneal dose of sodium pentobarbital (100 mg/kg) (Cat. No. 4579, Tocris).
(§2) The LAT1 inhibitor JPH203 (Cat. No. S8667) was intraperitoneally (ip) and chronically administered, starting the following day after TAC surgery.
(§3) Mice were randomly distributed to receive JPH203 at 12.5 mg/kg/day (prepared at 2 mg/ml of 40% 2-hydroxipropil-beta-cyclodextrin in saline). Sham and control groups received JPH203 vehicle (40% 2-hydroxipropil-beta-cyclodextrin in saline). Mice were euthanized 2 or 5 weeks after surgery.
After 5 hours of fasting, mice were injected with an intraperitoneal dose of L-Leucine-^13C6, ^15N (Cat. No. 608068, Sigma-Aldrich) at 0.1 mg/g 30 minutes before euthanizing with a lethal injection of sodium pentobarbital resuspended in saline and injected at 100 mg/kg (Cat. No. 4579, Tocris).
The levels of Branched-Chain Amino Acids (BCAA) and their main metabolites in biological samples will be determined by Liquid Chromatography tandem Mass Spectrometry (LC-MS/MS). Briefly, the determination of amino acids (BCAA but also amino acids involved in glutaminolysis) was performed by using a hydrophilic interaction chromatography (HILIC) with an amide column. After addition of the adequate internal standard (containing labelled analogues), protein precipitation with organic solvents and centrifugation, the supernatant was injected into the LC-MS/MS system operating in a Selected Reaction Monitoring (SRM) method by acquiring two transitions for each compound. The determination of α-ketoacids, α-hydroxy acids and SCFA (including the main BCAA metabolites and other compounds related with glutaminolysis) was performed by oBHA derivatization. The internal standard (containing labelled analogues) was added into the sample and the mixture was derivatized by adding a derivatizing mixture consisting in oBHA:EDC (1:1) in pyridine. After reaction for 1 h at room temperature, 1 mL of milliQ water and 4 mL of ethyl acetate was added to perform a liquid-liquid extraction. […] Quantification was performed by means of external calibration using authentic referent material. […] Several quality control samples (QCs) were analysed with every analytical batch with the aim of checking the inter-batch robustness of the results. […]

Another test deals with interstitial collagen. The experiment in a line: Cardiac fibrosis in Transverse Aortic Constriction (TAC) mouse model. To be noted: 12.5 mg/kg/day ip. The procedure: as §1, §2, §3
Hearts were fixed in buffered 4% paraformaldehyde and embedded in paraffin for histological evaluation. The amount of interstitial collagen deposition was determined in 4 µm transverse sections at the papillary muscles level stained with Picrosirius red (Sigma-Aldrich). At least ten random photomicrographs per animal were taken with the Leica DM IRBE Inverted Fluorescence Microscope at x200 magnification. The analysis was performed using Image J 1.50 Software. Interstitial fibrosis was expressed as the percentage of fibrotic area with respect to total area under quantification, perivascular fibrosis was manually excluded from the analysis.

Test [1] deals with heart failure induced by aortic stenosis. Nature of the test: Ventricular dilatation, cardiac function (echocardiography) and pulmonary oedema in TAC mouse model. The settings on record: after 5 weeks of TAC surgery, 12.5 mg/kg/day ip, vs control group. The protocol: as §1, §2, §3
(§4) Mice underwent transthoracic echocardiography at baseline (before surgery) and at 1, 2 and 5 weeks after surgery. Echocardiography was performed using a Prospect T1 Preclinical High Frequency Ultrasound System with a PB406e Probe 40MHz transducer (S-Sharp) applied to the shaved chest wall of mice anesthetized with isoflurane. The ejection fraction (EF), the left ventricular end-systolic (LVESd) and diastolic (LVEDd) internal diameters, left ventricular anterior wall (LVAW) thickness and left ventricular posterior wall (LVPW) thickness were measured in M-mode recordings.

The subject of the next test is heart hypertrophy. The experiment in a line: Cardiac hypertrophy in Transverse Aortic Constriction (TAC) mouse model. To be noted: 12.5 mg/kg/day ip, vs control group. The procedure:
as §1, §2, §3, §4
Hypertrophy was calculated as heart weight-to-tibia length ratio. Echocardiographic parameters like IVS and LVPW thicknesses, as well as BNP and Myh7 mRNA levels, are the common parameters used to define myocardial hypertrophy.

Test [2] has as its system genes involved in BCAA catabolism. The experiment in a line: BCAA catabolism gene expression (microarray, RT-PCR) in hearts of TAC mice. The settings on record: 12.5 mg/kg/day ip. The protocol: as §1, §2, §3
Total RNA was extracted from heart samples using the NZY Total RNA Isolation kit (Cat. No. MB13402, NZY Tech) following the manufacturer's protocol.
RNA was reverse transcribed into cDNA using a High-Capacity cDNA Reverse Transcription kit (Cat. No. 4368814, Applied Biosystems) following manufacturer's instructions. The thermal cycler (Bio-Rad) was programmed to run a single cycle of 25 °C for 10 min, 37 °C for 120 min, 85 °C for 5 min and kept at 4 °C until use.
For determination of differential gene expression, RNA was isolated, as previously described, from mice myocardial samples and its quality was analysed by capillary electrophoresis (Bioanalyzer 2100, Agilent) and amplified using the WT Plus Reagent Kit-HT (Applied Biosystems, Thermo Fisher Scientific). Microarray service was done by the Molecular Diagnosis and Genomic platforms of the High Technology Unit (VHIR) using Clariom S type arrays specific for mouse transcriptome (plate format) (Applied Biosystems). […]

Setting [3] is: 13C,15N-leucine ip 30 minutes before heart extraction, 2 weeks of TAC, 12.5 mg/kg/day ip.

Consider `Nc1cc(COc2c(Cl)cc(C[C@H](N)C(=O)O)cc2Cl)c2oc(-c3ccccc3)nc2c1` [JPH203, O-[(5-amino-2-phenyl-1,3-benzoxazol-7-yl)methyl]-3,5-dichloro-L-tyrosine], for which, in the test with myocardial BCAA content (setting [3]), the “increase in the ratio between the plasma and myocardial content of 13C6,15N-leucine (leucine uptake)” value is recorded as “prevented these alterations”; the “reduction in the levels of the 13C6,15N-leucine metabolite 13C-HMG” value is listed as “prevented these alterations”; the “reduction in the levels of the 13C6,15N-leucine metabolite 13C-isovaleric acid” value was “prevented these alterations”. In addition, in the test on myocardial BCAA content (LC-MS/MS, heart extracts after 2 weeks of TAC surgery, chronic administration 12.5 mg/kg/day ip), the “increase in the myocardial content of BCAA (valine, leucine and isoleucine)” value is “significantly attenuated”. In the test with interstitial collagen (Picrosirius Red stained heart sections, P<0.001), the “reduced interstitial collagen deposition” value was found to be 57%. Moreover, in the test on interstitial collagen (RT-PCR, myocardial homogenates after two weeks of TAC surgery, P=0.002), the “attenuation in the expression of collagen III” value stood at 58%. The “attenuation in the expression of collagen I” value with interstitial collagen (RT-PCR, myocardial homogenates after two weeks of TAC surgery, P=0.003) is reported as 56%. Besides, in test [1] (P<0.001), the “attenuation of the development of pulmonary oedema (water content in lungs)” value is 56%. In addition, in test [1] (P=0.030), the “attenuation of cardiac dysfunction (reduction in ejection fraction)” value is 38%. In test [1] (echocardiography, P=0.017), the “reduction of the diastolic volume (LVEDV)” value is reported as 60%. The “reduction of the systolic volume (LVESV)” value in test [1] (echocardiography, P=0.021) was determined as 51%. The “attenuation of the increase in HW/TL ratio” value in the test on heart hypertrophy (5 weeks of aortic stenosis, P<0.001) was 33%. For the same compound, the “attenuation of the increase in MyH7/MyH6 ratio” value in the test on heart hypertrophy (RT-PCR, P<0.001) was 44%. In addition, the “attenuation of the increase in BNP expression” value with heart hypertrophy (RT-PCR, P=0.001) turned out to be 65%. In the test with heart hypertrophy (echocardiography, diastole, P=0.006), the “reduction of posterior wall thickness” value amounted to 28%. Further, in the test with heart hypertrophy (echocardiography, diastole, P=0.026), the “reduction of anterior wall thickness” value is recorded as 30%. Besides, in test [2] (RT-PCR, hearts, vs control hearts, P=0.013), the “reduction in the expression of PP1MK” value was “significantly attenuated”. The “reduction in the expression of BCKDHB” value in test [2] (RT-PCR, hearts, vs control hearts, P=0.015) is given as “significantly attenuated”. For the same compound, the “downregulation of genes involved in BCAA catabolism induced by TAC surgery” value in test [2] (microarray, myocardial samples, JPH203 treated vs sham mice) is on record as “attenuates the downregulation”.

(Values after EP4545076A1, “LAT1 SELECTIVE INHIBITORS FOR USE IN THE TREATMENT OF ADVERSE VENTRICULAR -REMODELLING AND OF HEART FAILURE” (Fundació Hospital Universitari Vall d'Hebron - Institut de …, priority 2023, dated 2025).)
